This passage reports Ki results from US8999998B2, “Pyrazolopyrimidine JAK inhibitor compounds and methods” (Genentech, Inc., priority 2009, dated 2015).

In general, Ki refers to a dissociation constant, usually derived from enzyme kinetics or from competition with a known ligand.

Common to all, as to assay type: biochemical
One experiment addresses JAK1 kinase domain (Homo sapiens (Human), UniProt P23458). As to the kind of experiment: JAK1 inhibition assay (Caliper LabChip, isolated kinase domain). The conditions noted are these: 25 uM ATP, 1.5 nM JAK1; read-out: JAK1 enzymatic activity (Ki). An excerpt: (§1) The catalytically active kinase domain of human JAK1, JAK2, JAK3 or TYK2 was purified from extracts of SF9 insect cells infected with a recombinant baculovirus expression vector encoding the human JAK1, JAK2, JAK3 or TYK2 kinase domains (JAK1 amino acid residues N852-D1154 according to the numbering of GenBank sequence accession number P23458, JAK2 amino acid residues D812-G1132 according to the numbering of GenBank sequence accession number NP_004963.1; JAK3 amino acid residues S783-S1124 according to the numbering of GenBank sequence accession number P52333, and TYK2 amino acid residues N873-C1187 according to the numbering of GenBank sequence accession number P29597). The activity of the JAK1, JAK2, JAK3 or TYK2 kinase domains can be measured by a number of direct and indirect methods, including quantification of phosphorylation of peptide substrates derived from the human JAK3 protein (Saltzman et al., Biochem. Biophys. Res. Commun. 246:627-633 (2004)). The activity of the JAK1, JAK2, JAK3 or TYK2 kinase domains was measured in vitro by monitoring phosphorylation of JAK3 derived peptides using the Caliper LabChip technology (see Examples).
(§2) The activity of the isolated JAK1, JAK2 or TYK2 kinase domain was measured by monitoring phosphorylation of a peptide derived from JAK3 ([…] fluorescently labeled on the N-terminus with 5-carboxyfluorescein using the Caliper LabChip technology (Caliper Life Sciences, Hopkinton, Mass.). […] Reactions were incubated at 22° C. in 384-well polypropylene microtiter plates for 30 minutes and then stopped by addition of 25 uL of an EDTA containing solution (100 mM Hepes pH 7.2, 0.015% Brij-35, 150 mM EDTA), resulting in a final EDTA concentration of 50 mM. After termination of the kinase reaction, the proportion of phosphorylated product was determined as a fraction of total peptide substrate using the Caliper LabChip 3000 according to the manufacturer's specifications. Ki values were then determined using the Morrison tight binding model. Morrison, J. F., Biochim. Biophys. Acta. 185:269-296 (1969); William, J. W. and Morrison, J. F., Meth. Enzymol., 63:437-467 (1979).

The next experiment has as its target JAK2 kinase domain (Homo sapiens (Human), UniProt O60674). In words: JAK2 inhibition assay (Caliper LabChip, isolated kinase domain). The settings on record: 25 uM ATP, 0.2 nM JAK2; read-out: JAK2 enzymatic activity (Ki).
Excerpt: as §1, §2

The next experiment addresses TYK2 kinase domain (Homo sapiens (Human), UniProt P29597). As to the kind of experiment: TYK2 inhibition assay (Caliper LabChip, isolated kinase domain). The conditions noted are these: 25 uM ATP, 1 nM TYK2; read-out: TYK2 enzymatic activity (Ki).
Excerpt: as §1, §2

The target in the next experiment is JAK3 kinase domain (Homo sapiens (Human), UniProt P52333). As to the kind of experiment: JAK3 inhibition assay (Caliper LabChip, isolated kinase domain). The settings on record: 5 uM ATP, 5 nM JAK3; read-out: JAK3 enzymatic activity (Ki).
Excerpt: as §1, with “Previous studies have shown that the isolated kinase domains of human JAK1, JAK2, JAK3 or TYK2 phosphorylate peptide substrates in in vitro kinase assays (Saltzman et al., Biochem. Biophys. Res. Commun. 246:627-633 (2004)). The catalytically” for “The catalytically”
as §2, with “JAK3” for “JAK1, JAK2 or TYK2”

TYK2 kinase domain, sequence (P29597 873-1187): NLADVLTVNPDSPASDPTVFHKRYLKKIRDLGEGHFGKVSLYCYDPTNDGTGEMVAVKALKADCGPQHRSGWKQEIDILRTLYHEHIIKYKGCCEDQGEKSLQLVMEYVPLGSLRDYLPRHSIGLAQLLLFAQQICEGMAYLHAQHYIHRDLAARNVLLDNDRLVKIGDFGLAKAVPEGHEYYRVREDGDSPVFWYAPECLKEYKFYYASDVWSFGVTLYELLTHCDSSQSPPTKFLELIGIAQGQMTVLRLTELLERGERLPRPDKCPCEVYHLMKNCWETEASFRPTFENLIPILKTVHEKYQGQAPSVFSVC
JAK1 kinase domain, sequence (P23458 852-1154): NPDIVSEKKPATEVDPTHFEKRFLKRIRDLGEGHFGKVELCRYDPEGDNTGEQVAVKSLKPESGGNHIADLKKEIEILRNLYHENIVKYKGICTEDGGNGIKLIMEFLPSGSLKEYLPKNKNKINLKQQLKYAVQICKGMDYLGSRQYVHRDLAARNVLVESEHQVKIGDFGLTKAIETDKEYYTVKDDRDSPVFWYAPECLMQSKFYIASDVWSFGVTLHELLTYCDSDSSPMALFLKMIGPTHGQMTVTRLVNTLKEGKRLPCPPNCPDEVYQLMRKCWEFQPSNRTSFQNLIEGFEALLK
JAK2 kinase domain, sequence (O60674 812-1132): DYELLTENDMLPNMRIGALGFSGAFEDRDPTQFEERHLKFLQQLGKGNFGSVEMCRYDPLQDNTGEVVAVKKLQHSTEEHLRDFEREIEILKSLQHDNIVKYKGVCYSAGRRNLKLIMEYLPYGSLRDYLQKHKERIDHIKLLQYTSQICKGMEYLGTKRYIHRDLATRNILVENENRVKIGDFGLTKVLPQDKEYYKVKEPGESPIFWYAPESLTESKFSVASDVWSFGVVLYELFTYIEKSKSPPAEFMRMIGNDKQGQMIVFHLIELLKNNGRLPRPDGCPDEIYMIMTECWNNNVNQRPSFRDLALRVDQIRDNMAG
JAK3 kinase domain, sequence (P52333 783-1124): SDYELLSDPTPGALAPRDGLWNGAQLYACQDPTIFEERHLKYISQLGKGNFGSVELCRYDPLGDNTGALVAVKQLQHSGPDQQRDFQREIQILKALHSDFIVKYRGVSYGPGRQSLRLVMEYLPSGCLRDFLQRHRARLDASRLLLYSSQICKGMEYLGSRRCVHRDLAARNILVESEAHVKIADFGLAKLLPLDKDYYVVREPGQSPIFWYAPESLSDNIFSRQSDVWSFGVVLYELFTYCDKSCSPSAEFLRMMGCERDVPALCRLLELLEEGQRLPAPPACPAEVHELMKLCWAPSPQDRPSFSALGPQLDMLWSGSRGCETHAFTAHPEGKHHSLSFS

For the compound `CCOc1ccc(Cl)cc1-c1nn([C@H]2CCCC[C@@H]2O)cc1NC(=O)c1cnn2cccnc12` (stereo in doubt) [Example 414, N-(3-(5-chloro-2-ethoxyphenyl)-1-((1S,2S)-2-hydroxycyclohexyl)-1H-pyrazol-4-yl)pyrazolo[1,5-a]pyrimidine-3-carboxamide And N-(3-(5-chloro-2-ethoxyphenyl)-1-((1R,2R)-2-hydroxycyclohexyl)-1H-pyrazol-4-yl)pyrazolo[1,5-a]pyrimidine-3-carboxamide], the inhibitory constant (Ki) is 3.8 nM on JAK1 kinase domain, 12.5 nM at JAK2 kinase domain, 76 nM on TYK2 kinase domain and 210 nM on JAK3 kinase domain.

`Cc1cc(NC(=O)c2cnn3cccnc23)n(-c2cc(Cl)ccc2C)n1` [Example 6, N-(1-(5-chloro-2-methylphenyl)-3-methyl-1H-pyrazol-5-yl)pyrazolo[1,5-a]pyrimidine-3-carboxamide]: the Ki at JAK1 kinase domain was found to be 46.2 nM; at JAK2 kinase domain it was 4.9 nM; at TYK2 kinase domain it was 99.6 nM; at JAK3 kinase domain, 152 nM.

With `Cc1cc(NC(=O)c2cnn3cccnc23)n(-c2cc(C#N)ccc2Cl)n1` [Example 38, N-(1-(2-chloro-5-cyanophenyl)-3-methyl-1H-pyrazol-5-yl)pyrazolo[1,5-a]pyrimidine-3-carboxamide], the inhibition constant (Ki) was found to be 40.3 nM on JAK1 kinase domain, 5.7 nM at JAK2 kinase domain, 131 nM at TYK2 kinase domain and 102 nM on JAK3 kinase domain.

For `Cc1cc(NC(=O)c2cnn3cccnc23)n(-c2cc(Cl)ccc2Cl)n1` [Example 41, N-(1-(2,5-dichlorophenyl)-3-methyl-1H-pyrazol-5-yl)pyrazolo[1,5-a]pyrimidine-3-carboxamide], the Ki at JAK1 kinase domain was found to be 35.1 nM; at JAK2 kinase domain, 3.3 nM; at TYK2 kinase domain it was 104 nM; at JAK3 kinase domain it was 73.9 nM.

For `Cc1cc(NC(=O)c2cnn3cccnc23)n(-c2ccccc2Br)n1` [Example 44, N-(1-(2-bromophenyl)-3-methyl-1H-pyrazol-5-yl)pyrazolo[1,5-a]pyrimidine-3-carboxamide], the inhibition constant (Ki) stood at 131 nM at JAK1 kinase domain, 18 nM on JAK2 kinase domain, 480 nM at TYK2 kinase domain and 140 nM at JAK3 kinase domain.

Consider `O=C(Nc1ccnn1-c1ccccc1Cl)c1cnn2cccnc12` [Example 51, N-(1-(2-chlorophenyl)-1H-pyrazol-5-yl)pyrazolo[1,5-a]pyrimidine-3-carboxamide], for which the Ki was 83.7 nM at JAK1 kinase domain, 15.2 nM at JAK2 kinase domain, 98 nM on TYK2 kinase domain and 150 nM on JAK3 kinase domain.

For the compound `O=C(Nc1ccnn1-c1ccc(Cl)cc1)c1cnn2cccnc12` [Example 54, N-(1-(4-chlorophenyl)-1H-pyrazol-5-yl)pyrazolo[1,5-a]pyrimidine-3-carboxamide], the Ki on JAK1 kinase domain is 1200 nM; on JAK2 kinase domain, 159 nM; at TYK2 kinase domain it was 850 nM.

`O=C(Nc1ccncc1-c1cccc(F)c1)c1cnn2cccnc12` [Example 63, N-(3-(3-fluorophenyl)pyridin-4-yl)pyrazolo[1,5-a]pyrimidine-3-carboxamide]: the Ki is 153 nM on JAK1 kinase domain, 23 nM at JAK2 kinase domain, 140 nM on TYK2 kinase domain and 200 nM on JAK3 kinase domain.

Regarding `COc1ccc(Cl)cc1-c1c(NC(=O)c2cnn3cccnc23)cnn1CCO` [Example 109, N-(5-(5-chloro-2-methoxyphenyl)-1-(2-hydroxyethyl)-1H-pyrazol-4-yl)pyrazolo[1,5-a]pyrimidine-3-carboxamide], the inhibitory constant (Ki) on JAK1 kinase domain is 4.4 nM; at JAK2 kinase domain, 1 nM; on TYK2 kinase domain, 5.6 nM; on JAK3 kinase domain, 18 nM.

Take `COc1cnc(C(F)(F)F)cc1-c1nn(CC(C)(C)O)cc1NC(=O)c1cnn2cccnc12` [Example 143, N-(1-(2-hydroxy-2-methylpropyl)-3-(5-methoxy-2-(trifluoromethyl)pyridin-4-yl)-1H-pyrazol-4-yl)pyrazolo[1,5-a]pyrimidine-3-carboxamide]: the Ki is 12 nM on JAK1 kinase domain, 38.5 nM at JAK2 kinase domain, 350 nM on TYK2 kinase domain and 1500 nM on JAK3 kinase domain.

`COc1ccc(C#N)cc1-c1nn(Cc2ncnn2C)cc1NC(=O)c1cnn2cccnc12` [Example 155]: the inhibition constant Ki at JAK1 kinase domain was determined as 4.2 nM; on JAK2 kinase domain, 2.6 nM; on TYK2 kinase domain, 65 nM; on JAK3 kinase domain, 210 nM.

With `COc1ncc(C#N)cc1-c1n[nH]cc1NC(=O)c1cnn2cccnc12` [Example 158, N-(3-(5-Cyano-2-methoxypyridin-3-yl)-1H-pyrazol-4-yl)pyrazolo[1,5-a]pyrimidine-3-carboxamide], the Ki at JAK1 kinase domain came to 4.8 nM; on JAK2 kinase domain it was 1.5 nM; at TYK2 kinase domain it was 6.6 nM; on JAK3 kinase domain it was 53 nM.

Take `COc1ccc(Cl)cc1-c1nc(C)sc1NC(=O)c1cnn2cccnc12` [Example 170, N-(4-(5-chloro-2-methoxyphenyl)-2-methylthiazol-5-yl)pyrazolo[1,5-a]pyrimidine-3-carboxamide]: the Ki on JAK1 kinase domain was determined as 0.7 nM; on JAK2 kinase domain, 0.4 nM; on TYK2 kinase domain it was 2.1 nM; on JAK3 kinase domain it was 13 nM.

`O=C(Nc1c[nH]nc1-n1cc(Cl)ccc1=O)c1cnn2cccnc12` [Example 194, N-(3-(5-chloro-2-oxopyridin-1(2H)-yl)-1H-pyrazol-4-yl)pyrazolo[1,5-a]pyrimidine-3-carboxamide]: the Ki came to 775 nM at JAK1 kinase domain, 110 nM at JAK2 kinase domain, 980 nM at TYK2 kinase domain and 4100 nM at JAK3 kinase domain.

Turning to `COc1ccc(Cl)cc1-c1c(NC(=O)c2c(N)nn3cccnc23)cnn1CC(N)=O` [Example 217, 2-amino-N-(1-(2-amino-2-oxoethyl)-5-(5-chloro-2-methoxyphenyl)-1H-pyrazol-4-yl)pyrazolo[1,5-a]pyrimidine-3-carboxamide], the Ki turned out to be 2.1 nM at JAK1 kinase domain, 0.5 nM on JAK2 kinase domain, 2.3 nM at TYK2 kinase domain and 5.5 nM at JAK3 kinase domain.

With `COc1ccc(Cl)cc1-c1nn(CC(=O)N2CCCC2C)cc1NC(=O)c1cnn2cccnc12` (stereo not drawn) [Example 283, N-(3-(5-chloro-2-methoxyphenyl)-1-(2-(2-methylpyrrolidin-1-yl)-2-oxoethyl)-1H-pyrazol-4-yl)pyrazolo[1,5-a]pyrimidine-3-carboxamide], the Ki on JAK1 kinase domain was determined as 0.7 nM; at JAK2 kinase domain, 3.1 nM; on TYK2 kinase domain, 9.1 nM; at JAK3 kinase domain, 270 nM.
